Consider six compounds from article PMC12799587, “Predicting compounds that interact with the 2 known agonist-induced conformations of the human β1-adrenoceptor” (Molecular Pharmacology, 2025).

For experiment [1], the target named is T1, β1-AR (Homo sapiens, UniProt P08588). Description: CRE-luciferase production in CHO-β1-CRE-luciferase cells. To be noted: CHO-β1-CRE-luciferase cells; for % isop: response compared to 10 μM isoprenaline; for Log EC50: agonist action, given as log EC50 (negative); for Log KD Secondary Conformation, CGP12177 as agonist: rightward shift of CGP12177 response, Gaddum, or Stephenson for partial agonists (a).
T1 sequence (P08588 whole entry): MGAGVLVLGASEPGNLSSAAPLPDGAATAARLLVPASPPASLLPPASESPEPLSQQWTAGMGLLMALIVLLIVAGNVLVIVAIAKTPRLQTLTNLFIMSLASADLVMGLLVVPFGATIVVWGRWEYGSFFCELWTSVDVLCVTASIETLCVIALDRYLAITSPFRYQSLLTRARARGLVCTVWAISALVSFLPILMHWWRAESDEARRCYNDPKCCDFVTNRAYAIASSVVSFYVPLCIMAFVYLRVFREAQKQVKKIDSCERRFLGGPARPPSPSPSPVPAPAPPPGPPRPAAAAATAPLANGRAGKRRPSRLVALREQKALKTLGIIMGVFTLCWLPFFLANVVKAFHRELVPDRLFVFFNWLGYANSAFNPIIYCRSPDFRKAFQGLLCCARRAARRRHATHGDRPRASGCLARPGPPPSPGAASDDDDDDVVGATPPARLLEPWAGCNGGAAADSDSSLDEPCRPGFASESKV

In experiment [2] the target is T1, β1-AR. Briefly: Summary of pharmacological outcome at the β1-AR (CHO-β1-luciferase or CHO-β1-SPAP cells). To be noted: for Pharmacological Outcome: CCE/IBS conformation / Pharmacological Outcome: SCE conformation: β1-AR, summary; for Evidence of SCE activation: evidence A–D as outlined in the Introduction, CHO-β1-luciferase or CHO-β1-SPAP cells.
Experiment [3] deals with T1, β1-AR. Briefly: CRE-SPAP production in CHO-β1-CRE-SPAP cells. Format: cell-based. To be noted: CHO-β1-CRE-SPAP cells; for Log EC50: agonist action; for Log KD Secondary Conformation, CGP12177 as agonist: rightward shift of CGP12177 response; for Log KD Catecholamine conformation Cimaterol as Agonist: rightward shift of cimaterol response, Gaddum, or Stephenson (a). Further details: expressed in transfected cells; host or cells: CHO-K1 clonal lines (CHO-β1-CRE-luc, CHO-β1-CRE-SPAP). The protocol: (§1) Many agonist responses were best described by a one-site sigmoidal agonist concentration-response curve.
(§2) In experiments where 3 different fixed concentrations of the same antagonist were used, Schild plots were constructed using equation (6):(6) logDR-1=logB-logKD
(§3) These points were then fitted to a straight line. A slope of 1 then indicates competitive antagonism.[39]
(§4) Where clear partial agonism was present (eg, Fig. 3D), the partial agonist affinity was calculated by the method of Stephenson[40] using equation 7.
(§5) (7) KDpartialagonist=Y×P/1-YwhereY=A2-A1/A3 where [P] is the concentration of the partial agonist, [A1] is the concentration of the agonist at the point where the fixed partial agonist causes the same response, [A2] is the concentration of agonist causing a given response above that achieved by the partial agonist, and [A3] is the concentration of the agonist, in the presence of the partial agonist, causing the same stimulation as [A2].
where N is the percentage of site 1, [A] is the concentration of agonist, and EC1_50 and EC2_50 are the respective EC50 values for the 2 agonist sites.

In experiment [4] the target is T2, human β2-AR (Homo sapiens, UniProt P07550). Description: CRE-SPAP production in CHO-β2-CRE-SPAP cells. Particulars: for % Isoprenaline: response compared with 10 μM isoprenaline; for Log EC50: agonist action; for Log KD (CGP12177 as Agonist): rightward shift of CGP12177 response. Further details: expressed in transfected cells; host or cells: CHO-K1 clonal line (CHO-β2-CRE-SPAP). Format: cell-based. The protocol:
as §1, §2, §3, §4, §5

Experiment [5] concerns the target T2, human β2-AR. Briefly: 3H-CGP12177 whole-cell binding in CHO-β2-CRE-SPAP cells.

T2 sequence (P07550 whole entry): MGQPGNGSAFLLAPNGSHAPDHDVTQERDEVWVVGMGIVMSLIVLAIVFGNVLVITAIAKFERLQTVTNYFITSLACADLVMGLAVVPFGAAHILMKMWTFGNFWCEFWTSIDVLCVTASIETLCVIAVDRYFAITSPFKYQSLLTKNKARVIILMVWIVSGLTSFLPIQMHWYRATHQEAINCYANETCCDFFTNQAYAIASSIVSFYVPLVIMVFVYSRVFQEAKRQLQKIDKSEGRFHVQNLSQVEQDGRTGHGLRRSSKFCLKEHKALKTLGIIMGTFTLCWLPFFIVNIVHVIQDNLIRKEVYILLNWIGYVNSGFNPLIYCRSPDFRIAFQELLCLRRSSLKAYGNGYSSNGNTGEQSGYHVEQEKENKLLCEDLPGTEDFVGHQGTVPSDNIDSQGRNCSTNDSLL

`C=CCc1ccccc1OCC(O)CNC(C)C` (racemic) [Alprenolol, (RS)-1-(2-allylphenoxy)-3-(isopropylamino)propan-2-ol, reference compound]: the “% isop” value on β1-AR [1] came out at 3.2 ± 0.8%. On β1-AR [2], the “Pharmacological Outcome: CCE/IBS conformation” value was “Agonist (biphasic)” and the “Pharmacological Outcome: SCE conformation” value is “Agonist (biphasic)”. The “% at EC501” value at β1-AR [3] (% of the response occurring via first component) is listed as 62.5 ± 2.7%. Besides, the “% Isoprenaline” value at β1-AR [3] (response compared with 10 μM isoprenaline) was found to be 56.7 ± 3.7%.

Consider `C=CCOc1ccccc1OCC(O)CNC(C)C` (racemic) [Oxprenolol, (RS)-1-[2-(allyloxy)phenoxy]-3-(isopropylamino)propan-2-ol, reference compound], for which the “% Isoprenaline” value on human β2-AR [4] is 40.1 ± 2.3%. At β1-AR [2], the “Pharmacological Outcome: CCE/IBS conformation” value was “Agonist (biphasic)” and the “Pharmacological Outcome: SCE conformation” value was “Agonist (biphasic)”.

In the case of `CC(C)NCC(O)COc1cccc2[nH]ccc12` (racemic) [Pindolol, (RS)-1-[(1H -indol-4-yl)oxy]-3-(isopropylamino)propan-2-ol, reference compound], the “% isop” value on β1-AR [1] is recorded as 11.7 ± 1.4%. Besides, at β1-AR [2], the “Pharmacological Outcome: CCE/IBS conformation” value is reported as “Agonist (biphasic)” and the “Pharmacological Outcome: SCE conformation” value is given as “Agonist (biphasic)”.

Take `CC(C)(C)NC[C@@H](O)COc1cccc2c1CCC(=O)N2` [VL04, 5-[(2R)-3-(tert-butylamino)-2-hydroxypropoxy]-3,4-dihydro-1H -quinolin-2-one]: the “% Isoprenaline” value at human β2-AR [4] is 55.1 ± 2.7%.

On to `Cc1cc(C)c(OC[C@@H](O)CNC(C)C)c(C)c1` [VL08, (2S)-1-(propan-2-ylamino)-3-(2,4,6-trimethylphenoxy)propan-2-ol], for which, on human β2-AR [5], the affinity, expressed as Kd, was 3.24 µM. Moreover, at β1-AR [1], the “Log EC50” value is “No response” and the “Log KD Secondary Conformation, CGP12177 as agonist” value (“Log KD Secondary Conformation” for short) is listed as “No shift 10 μM”. On human β2-AR [4] (Log KD (Cimaterol as Agonist), rightward shift of cimaterol response, Gaddum, or Stephenson (a)), the Kd (commonly the equilibrium constant for the complex coming apart) is 2.09 µM. For the same compound, at human β2-AR [4], the “Log EC50” value is “No response” and the “Log KD (CGP12177 as Agonist)” value was “No shift 10 μM”. Further, at β1-AR [2], the “Evidence of SCE activation” value was “None”, the “Pharmacological Outcome: CCE/IBS conformation” value was “No receptor interaction” and the “Pharmacological Outcome: SCE conformation” value was “No receptor interaction”. Moreover, at β1-AR [3], the “Log EC50” value was “No response”; the “Log KD Secondary Conformation” value was “No shift 10 μM”; the “Log KD Catecholamine conformation Cimaterol as Agonist” value is “No shift 10 μM”.

Consider `OCCOc1ccc(CNCCc2c[nH]c3ccccc23)cc1` [VL11, 2-[4-[[2-(1H -indol-3-yl)ethylamino]methyl]phenoxy]ethanol], for which, on human β2-AR [5], the Kd is 8.91 µM. Also, on β1-AR [1], the “Log EC50” value is reported as “No response” and the “Log KD Secondary Conformation” value was “No shift 10 μM”. For the same compound, at human β2-AR [4], the “Log EC50” value is given as “No response” and the “Log KD (CGP12177 as Agonist)” value was “No shift 10 μM”. In addition, at human β2-AR [4] (rightward shift of cimaterol response, Gaddum, or Stephenson (a)), the “Log KD (Cimaterol as Agonist)” value is reported as “No shift 10 μM”. Besides, on β1-AR [2], the “Evidence of SCE activation” value was “None”, the “Pharmacological Outcome: CCE/IBS conformation” value was “No receptor interaction” and the “Pharmacological Outcome: SCE conformation” value is recorded as “No receptor interaction”. Also, at β1-AR [3], the “Log EC50” value is “No response”; the “Log KD Secondary Conformation” value is listed as “No shift 10 μM”; the “Log KD Catecholamine conformation Cimaterol as Agonist” value is listed as “No shift 10 μM”.
